This note sets out measurements from patent EP0947820A2, “Method for sample preparation” (Evotec BioSystems GmbH, priority 1998, dated 1999).

The target in this experiment is HIV Reverse Transcriptase (HIV-RT) (Human immunodeficiency virus type 1 group M subtype B, UniProt P04585). Briefly: primer extension assay using HIV Reverse Transcriptase after dry-storage of the inhibitor, read out by FCS. The format is biochemical. Particulars: stored in a desiccator overnight at room-temperature, reaction 40°C, 2 min. The method, then:
The method, according to claim 1 was used for a primer extension assay using HIV Reverse Transcriptase (HIV-RT). Precoating the assay plate: 1 µl aliquots of 0.1% (w/v) aqueous solution of HBC (2-hydroxypropyl-β-cyclodextrin) was pipetted into the wells of a nanotiter plate and subjected to a flow of nitrogen gas until all the solvent (water) was evaporated. […] As a control, a section of the nanotiter plate was not coated with HBC. The plate was subsequently loaded with 1 µl (1 mg/ml) of the HIV Reverse Transcriptase Inhibitor AZT (3'Azido-3'deoxythymidine) contained in 50 mM DMSO/ 10 mM NaCl. The solvent (DMSO/water) evaporated by exposure to a flow of nitrogen gas at room-temperature. As a control, some wells of the nanotiter plate (coated and non-coated) were not charged with AZT. The plates were stored in a desiocator overnight at room-temperature.
The primer extension assay was performed by pipetting 900 nanoliter of a reaction mix containing: 2 pmol TMR-lablled 20 base oligo deoxynucleotide anneald to a 200 base RNA-template (gag region of the HIV genome), 50 mM Tris-HCl pH 8.2, dissolved, 50 mM NaCl, 1 mM of each dNTP. The nanotiter plate was incubated at 40°C for 2 min and the extension reaction stopped by the addition of 100 nanoliter 0.5 M EDTA. The primer extension products were analyzed by FCS.
• 1. […]

As for `Cc1cn([C@H]2C[C@H](N=[N+]=[N-])[C@@H](CO)O2)c(=O)[nH]c1=O` [AZT, 3'Azido-3'deoxythymidine], the Primer extension result was “only partially inhibited” (AZT 1 µl (1 mg/ml) dried in nanotiter plate wells not coated with HBC) and “inhibited” (AZT 1 µl (1 mg/ml) dried in nanotiter plate wells precoated with HBC (1 µl of 0.1% w/v)).
